Measurements reported in publication PMC4146477, “Synthesis and Antimycobacterial and Photosynthesis-Inhibiting Evaluation of 2-[(E)-2-Substituted-ethenyl]-1,3-benzoxazoles” (The Scientific World Journal, 2014).
pIC50: −log10 of the molar value. In brackets after ≈: the same amount, converted by molar mass. Several values for one entry are separate records, joined by “and”; a condition that tells them apart may be missing. Identical values can stand only once. Like-named read-outs stand apart in the source and are kept apart here.

Key:
[1] = Lipophilicity determination by RP-HPLC (capacity factor k / log k); format: physicochemical; details: C18, MeOH 70% / H2O 30%, isocratic
From the text: A Waters Alliance 2695 XE HPLC separation module and a Waters Photodiode Array Detector 2996 (Waters Corp., Milford, MA, USA) were used. A Symmetry C18 5 μm, 4.6 × 250 mm, Part No. WAT054275 (Waters Corp., Milford, MA, USA) chromatographic column was used. The HPLC separation process was monitored by Empower 2 Chromatography Data Software, Waters 2009 (Waters Corp., Milford, MA, USA). A mixture of MeOH p.a. (70%) and H2O-HPLC - Mili-Q Grade (30%) was used as a mobile phase. The total flow of the column was 1.0 mL/min, injection volume, 30 μL, column temperature, 45°C, and sample temperature, 10°C. The detection wavelength of 210 nm was chosen. The KI methanolic solution was used for the dead time (t D) determination. Retention times (t R) were measured in minutes. The capacity factors k were calculated using the Empower 2 Chromatography Data Software according to formula k = (t R − t D)/t D, where t R is the retention time of the solute, whereas t D denotes the dead time obtained using an unretained analyte.
Lipophilicity is a property that has a major effect on ADME/Tox properties as well as pharmacological activity, because drugs mostly cross biological membranes through passive transport, which strongly depends on their lipophilicity. Lipophilicity has been studied and applied as an important drug property for decades. This parameter was measured by means of RP-HPLC and expressed as logarithm of capacity factor k. The procedure was performed under isocratic conditions with methanol as an organic modifier in the mobile phase using an end-capped nonpolar C18 stationary RP column. The hydrophobic contributions (expressed as distributive parameters π) of individual substituents in C(2) position of 2-[(E)-2-substituted-ethenyl]-1,3-benzoxazole scaffold were predicted using ACD/Percepta ver. 2012 (Advanced Chemistry Development, Inc., Toronto, ON, Canada). The results are shown in Table 1 and the match of the experimental determined lipophilicity log k with calculated distributive parameters π is illustrated in Figure 1.

[2] = tested on: Mycobacterium tuberculosis My 331/88; test: In vitro antimycobacterial evaluation (MIC, Sula semisynthetic medium); format: cell-based
M. avium My 330/88 = test: as above; format: cell-based; details: Mycobacterium avium
[3] = tested on: photosynthetic electron transport (PET) in spinach chloroplasts; test: Inhibition of photosynthetic electron transport (PET) in spinach chloroplasts (DCPIP photoreduction); format: biochemical, Spinacia oleracea L.; details: DCPIP as electron acceptor
Protocol: Chloroplasts were prepared from spinach (Spinacia oleracea L.) according to Masarovicova and Kralova. The inhibition of photosynthetic electron transport (PET) in spinach chloroplasts was determined spectrophotometrically (Genesys 6, Thermo Scientific), using an artificial electron acceptor 2,6-dichlorophenol-indophenol (DCPIP) according to Kralova et al., and the rate of photosynthetic electron transport was monitored as a photoreduction of DCPIP. The measurements were carried out in phosphate buffer (0.02 mol/L, pH 7.2) containing sucrose (0.4 mol/L), MgCl2 (0.005 mol/L), and NaCl (0.015 mol/L). The chlorophyll content was 30 mg/L in these experiments and the samples were irradiated (~100 W/m^2 with 10 cm distance) with a halogen lamp (250 W) using a 4 cm water filter to prevent warming of the samples (suspension temperature 22°C). The studied compounds were dissolved in DMSO due to their limited water solubility. […] The inhibitory efficiency of the studied compounds was expressed by IC50 values, that is, by molar concentration of the compounds causing 50% decrease in the oxygen evolution rate relative to the untreated control.

M. kansasii My 235/80 = test: In vitro antimycobacterial evaluation (MIC, Sula semisynthetic medium); format: cell-based; details: Mycobacterium kansasii
[4] = tested on: aromatic amino acids in photosynthetic proteins of spinach chloroplasts; test: Aromatic amino acids (AAA) fluorescence in spinach chloroplasts; format: biochemical, Spinacia oleracea L.; details: increasing concentration (0, 3.2, 6.4, 9.6 μmol/L), excitation 275 nm
Protocol: The fluorescence emission spectra of aromatic amino acids (AAA) in spinach chloroplasts were recorded on fluorescence spectrophotometer F-2000 (Hitachi, Tokyo, Japan) using excitation wavelength λ ex = 275 nm, excitation slit 20 nm, and emission slit 10 nm. The phosphate buffer used for dilution of the chloroplast suspension was the same as described above. Due to low aqueous solubility the compounds were added to the chloroplast suspension in DMSO solution. The DMSO concentration in all samples was the same as in the control (10%). The chlorophyll concentration in the chloroplast suspension was 10 mg/L. The interaction of studied compounds with aromatic amino acids (AAA) occurring in photosynthetic proteins of spinach chloroplasts situated in PS II was monitored by the quenching of AAA fluorescence at 334 nm.

[5] = MY331/88, 336 h, 14d incubation
[6] = MY331/88, 504 h, 21d incubation
[7] = MY330/88, 336 h, 14d incubation
[8] = MY330/88, 504 h, 21d incubation
[9] = MY235/80, 336 h, 14d incubation, read-out: MIC MK
[10] = MY235/80, 504 h, 21d incubation, read-out: MIC MK
[11] = MY235/80, incubation time not stated, read-out: inhibitory activity (MIC) against M. kansasii

SMILES | log k [1] | MIC [2, 5] [µM] | MIC [2, 6] [µM] | MIC (M. avium My 330/88; [7]) [µM] | MIC (M. avium My 330/88; [8]) [µM] | pIC50 [3] | MIC (M. kansasii My 235/80; [9]) [µM] | MIC (M. kansasii My 235/80; [10]) [µM] | AAA fluorescence at 334 nm [4] | MIC (M. kansasii My 235/80; [11]) [µM]
C(=C\c1nc2ccccc2o1)/c1ccccc1 [Compound 1, 2-[(E)-2-Phenylethenyl]-1,3-benzoxazole] | 0.9409 | 125 (≈ 27.7 µg/mL) | 125 (≈ 27.7 µg/mL) | 62.5 (≈ 13.8 µg/mL) | 125 (≈ 27.7 µg/mL) | 3.83 | 125 (≈ 27.7 µg/mL) | 125 (≈ 27.7 µg/mL) | – | –
COc1ccccc1/C=C/c1nc2ccccc2o1 [Compound 2, 2-[(E)-2-(2-Methoxyphenyl)ethenyl]-1,3-benzoxazole] | 0.9325 | 125 (≈ 31.4 µg/mL) | 125 (≈ 31.4 µg/mL) | 62.5 (≈ 15.7 µg/mL) | 125 (≈ 31.4 µg/mL) | 4.12 | 125 (≈ 31.4 µg/mL) | 125 (≈ 31.4 µg/mL) | – | –
COc1ccc(/C=C/c2nc3ccccc3o2)cc1 [Compound 3, 2-[(E)-2-(4-Methoxyphenyl)ethenyl]-1,3-benzoxazole] | 0.9382 | 62.5 (≈ 15.7 µg/mL) | 62.5 (≈ 15.7 µg/mL) | 32 (≈ 8.04 µg/mL) | 62.5 (≈ 15.7 µg/mL) | 3.67 | 62.5 (≈ 15.7 µg/mL) | 125 (≈ 31.4 µg/mL) | strong decline | –
CSc1ccc(/C=C/c2nc3ccccc3o2)cc1 [Compound 4, 2-{(E)-2-[4-(Methylsulfanyl)phenyl]ethenyl}-1,3-benzoxazole] | 1.1225 | 62.5 (≈ 16.7 µg/mL) | 125 (≈ 33.4 µg/mL) | 62.5 (≈ 16.7 µg/mL) | 62.5 (≈ 16.7 µg/mL) | 3.70 | 62.5 (≈ 16.7 µg/mL) | 62.5 (≈ 16.7 µg/mL) | – | 62.5 (≈ 16.7 µg/mL)
Cc1ccc(/C=C/c2nc3ccccc3o2)cc1 [Compound 5, 2-[(E)-2-(4-Methylphenyl)ethenyl]-1,3-benzoxazole] | 1.1226 | 250 (≈ 58.8 µg/mL) | 250 (≈ 58.8 µg/mL) | 125 (≈ 29.4 µg/mL) | 250 (≈ 58.8 µg/mL) | 3.99 | 250 (≈ 58.8 µg/mL) | 500 (≈ 118 µg/mL) | – | –
Clc1ccc(/C=C/c2nc3ccccc3o2)cc1 [Compound 6, 2-[(E)-2-(4-Chlorophenyl)ethenyl]-1,3-benzoxazole] | 1.1226 and 1.1271 | 250 (≈ 63.9 µg/mL) | 250 (≈ 63.9 µg/mL) | 250 (≈ 63.9 µg/mL) | 500 (≈ 128 µg/mL) | 3.29 | 500 (≈ 128 µg/mL) | 500 (≈ 128 µg/mL) | – | 500 (≈ 128 µg/mL)
FC(F)(F)c1ccc(/C=C/c2nc3ccccc3o2)cc1 [Compound 7, 2-{(E)-2-[4-(Trifluoromethyl)phenyl]ethenyl}-1,3-benzoxazole] | 1.1317 | 125 (≈ 36.2 µg/mL) | 250 (≈ 72.3 µg/mL) | 125 (≈ 36.2 µg/mL) | 250 (≈ 72.3 µg/mL) | – | 250 (≈ 72.3 µg/mL) | 500 (≈ 145 µg/mL) | – | –
C(=C\c1nc2ccccc2o1)/c1ccc2c(c1)CCO2 [Compound 8, 2-[(E)-2-(2,3-Dihydro-1-benzofuran-5-yl)ethenyl]-1,3-benzoxazole] | 0.9397 | 62.5 (≈ 16.5 µg/mL) | 62.5 (≈ 16.5 µg/mL) | 32 (≈ 8.43 µg/mL) | 32 (≈ 8.43 µg/mL) | 3.88 | 62.5 (≈ 16.5 µg/mL) | 250 (≈ 65.8 µg/mL) | – | –
C(=C\c1nc2ccccc2o1)/c1ccco1 [Compound 9, 2-[(E)-2-(Furan-2-yl)ethenyl]-1,3-benzoxazole] | – | 62.5 (≈ 13.2 µg/mL) | 125 (≈ 26.4 µg/mL) | 62.5 (≈ 13.2 µg/mL) | 125 (≈ 26.4 µg/mL) | 3.65 | 125 (≈ 26.4 µg/mL) | 125 (≈ 26.4 µg/mL) | – | –
CCc1ccc(/C=C/c2nc3ccccc3o2)o1 [Compound 10, 2-[(E)-2-(5-Ethylfuran-2-yl)ethenyl]-1,3-benzoxazole] | 1.0702 | 250 (≈ 59.8 µg/mL) | 250 (≈ 59.8 µg/mL) | 250 (≈ 59.8 µg/mL) | 250 (≈ 59.8 µg/mL) | 3.91 | 62.5 (≈ 15 µg/mL) | 250 (≈ 59.8 µg/mL) | – | –
C(/C=C/c1nc2ccccc2o1)=C\c1ccccc1 [Compound 11, 2-[(1E,3E)-4-Phenylbuta-1,3-dien-1-yl]-1,3-benzoxazole] | – | 125 (≈ 30.9 µg/mL) | 250 (≈ 61.8 µg/mL) | 250 (≈ 61.8 µg/mL) | 500 (≈ 124 µg/mL) | 3.11 | 500 (≈ 124 µg/mL) | 500 (≈ 124 µg/mL) | – | 500 (≈ 124 µg/mL)
COc1ccc(/C=C/C=C/c2nc3ccccc3o2)cc1 [Compound 12, 2-[(1E,3E)-4-(4-Methoxyphenyl)buta-1,3-dien-1-yl]-1,3-benzoxazole] | 1.1394 | 125 (≈ 34.7 µg/mL) | 250 (≈ 69.3 µg/mL) | 125 (≈ 34.7 µg/mL) | 125 (≈ 34.7 µg/mL) | 3.45 | 125 (≈ 34.7 µg/mL) | 250 (≈ 69.3 µg/mL) | – | –
CN(C)C(=O)Nc1ccc(Cl)c(Cl)c1 [DCMU, 3-(3,4-dichlorophenyl)-1,1-dimethylurea, reference compound] | – | – | – | – | – | ~5.72 and 5.72 | – | – | – | –
NNC(=O)c1ccncc1 [INH, isoniazid, reference compound] | – | 0.5 (≈ 0.0686 µg/mL) | 0.5 (≈ 0.0686 µg/mL) | > 250 | > 250 | – | > 250 | > 250 | – | –
